Key:
[1] = target: T1, human cloned CHRM2 receptor (Homo sapiens, UniProt P08172); experiment: CHRM2 Ca++ Flux Assay (M2_CHO cells, agonist mode); type: cell-based; conditions: M2 CHO cells; for EC50: agonist mode, geometric mean if tested more than once, read-out: M2 FDSS EC50; for M2 FDSS PA %: Percent Activity (PA) measured to EC100 of Carbachol
T1 construct: expressed in transfected cells; host or cells: CHO-K1 (M2_CHO)
T1 sequence (P08172 1-466): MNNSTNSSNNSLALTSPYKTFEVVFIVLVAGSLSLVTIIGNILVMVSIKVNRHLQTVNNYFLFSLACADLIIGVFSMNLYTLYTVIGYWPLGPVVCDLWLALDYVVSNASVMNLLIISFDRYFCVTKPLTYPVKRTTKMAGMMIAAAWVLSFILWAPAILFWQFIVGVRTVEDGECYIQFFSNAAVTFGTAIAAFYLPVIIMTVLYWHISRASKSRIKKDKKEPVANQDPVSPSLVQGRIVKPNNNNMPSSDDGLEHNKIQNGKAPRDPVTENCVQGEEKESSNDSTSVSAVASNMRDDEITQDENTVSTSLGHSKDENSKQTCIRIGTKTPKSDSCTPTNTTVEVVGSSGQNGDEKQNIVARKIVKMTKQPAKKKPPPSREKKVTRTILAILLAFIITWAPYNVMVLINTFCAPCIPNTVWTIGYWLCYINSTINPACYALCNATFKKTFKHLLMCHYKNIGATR
Experimental: (§1) The above examples were characterized by measuring the intracellular mobilization of Ca^++ ions caused by signaling events mediated by the receptor. The Intra-cellular Calcium flux levels were captured by the highly sensitive Ca^++ indicator, Calcium Assay Kit (BD Biosciences; Catalog Number 640178. The fluorescent activity from all receptors were monitored by the fluorescent imager, FDSS 7000EX (Hamamatsu) over a span of 3 minutes. The change in Calcium flux was readily captured upon activation with the muscarinic orthosteric agonist, Carbachol.
(§2) CHO-K1 cells stably expressing the human cloned CHRM2 receptor (M2_CHO cells) were grown and maintained in a monolayer culture with F12/HAM (Life Technologies) supplemented with 10% Fetal Bovine Serum, 1×Pen-Strep, and 0.4 mg/mL Geneticin in a humidified atmosphere (5% CO2) at 37° C. The cultures were grown to 80-90% confluency in T150 flasks (Corning) and washed with 1×DPBS and lifted with 0.05% Trypsin (Life Technologies). The cells were then spun (1K rpm, 3 minutes) and frozen using Recovery Cell Culture Freezing Media (Gibco Technologies). Cells were stored in liquid nitrogen and thawed a day before the assay.
Prior to the day of the assay, stable M2 CHO cells were thawed and plated on Greiner 384 well TC treated plate at a density of 12K cells/well and kept overnight in a humidified atmosphere (5% CO2) at 37° C. The following day, the cells were loaded with Ca^++ dye (BD Biosciences) using Loading Buffer (HBSS +Ca/+Mg, 20 mM HEPES, 2.5 mM Probenecid) and placed back in cell incubator for a minimum of 1 hour and maximum of 2 hours. After incubation, the dye was replaced with Assay Buffer (HBSS −Ca/−Mg, 20 mM HEPES, 2.5 mM Probenecid) supplemented with 20 μM ATP (Sigma Aldrich) and kept at room temperature for 60 minutes prior before running on cell imager. The FDSS 7000EX (Hamamatsu) was used to acquire Ca^++ traces from cells in response to compound treatment and the data was used to generate dose response curves in agonist mode. All compounds were serially diluted in DMSO then prepared in Assay Buffer for Ca^−+ flux studies. The dose response curves were generated from the average of triplicate wells obtained from each data point and used a non-linear regression of four parameter dose response algorithm. The Percent Activity (PA) was measured to EC100 of Carbachol.
(§3) If an Example was tested more than once in an assay, then the values below represent the geometric mean of the results from each independent experiment.

[2] = target: T2, human cloned CHRM5 receptor (Homo sapiens, UniProt P08912); experiment: CHRM5 Ca++ Flux Assay (M5_CHO cells, agonist mode); type: cell-based; conditions: for M5 FDSS PA %: Percent Activity (PA) measured to EC100 of Carbachol; for EC50: agonist mode, geometric mean if tested more than once, read-out: M5 FDSS EC50
T2 construct: expressed in transfected cells; host or cells: CHO (M5_CHO)
T2 sequence (P08912 1-532): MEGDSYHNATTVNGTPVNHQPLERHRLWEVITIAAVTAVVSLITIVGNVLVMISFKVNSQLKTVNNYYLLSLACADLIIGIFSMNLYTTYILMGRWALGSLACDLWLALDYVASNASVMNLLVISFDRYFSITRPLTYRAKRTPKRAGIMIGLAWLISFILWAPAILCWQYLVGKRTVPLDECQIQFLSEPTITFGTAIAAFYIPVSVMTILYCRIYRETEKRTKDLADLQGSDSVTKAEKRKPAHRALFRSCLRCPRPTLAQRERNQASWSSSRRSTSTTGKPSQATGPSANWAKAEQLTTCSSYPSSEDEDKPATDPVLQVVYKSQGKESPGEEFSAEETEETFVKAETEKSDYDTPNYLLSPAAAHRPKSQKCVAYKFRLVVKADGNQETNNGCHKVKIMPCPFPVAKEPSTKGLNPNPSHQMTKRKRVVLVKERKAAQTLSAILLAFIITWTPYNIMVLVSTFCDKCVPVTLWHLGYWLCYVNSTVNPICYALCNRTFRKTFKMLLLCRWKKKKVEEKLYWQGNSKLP
Experimental: as §1
as §2, with “CHRM3” for “CHRM2”, “(M3_CHO” for “(M2_CHO”, “IX Pen-Strep,” for “1×Pen-Strep,”, “assay. A similar procedure was used for cells stably expressing the human cloned CHRM5 receptor (M5_CHO).” for “assay.”
Prior to the day of the assay, stable M3_CHO or M5_CHO cells were thawed and plated on Greiner 384 well black TC treated plates at 12K cells/well in F12/DMEM supplemented with 10% FBS (Hyclone) and kept overnight in a humidified atmosphere (5% CO2) at 37° C. The next day, cells were loaded with Ca^++ dye (BD Biosciences) using Loading Buffer (HBSS +Ca/+Mg, 20 mM HEPES, 2.5 mM Probenecid) and placed back in cell incubator for a minimum of 1 hour. After incubation, the dye was replaced with Assay Buffer (HBSS −Ca/−Mg, 20 mM HEPES, 2.5 mM Probenecid) and kept at room temperature in the dark before running on cell imager. The FDSS 7000EX (Hamamatsu) was used to acquire Ca^+− traces from cells treated with 11 point dose response of compounds in triplicate in order to generate dose response curves in agonist mode. All compounds were serially diluted in DMSO then prepared in Assay Buffer for Ca^++ flux studies. The dose response curves were generated from the average of triplicate wells obtained from each data point and used a non-linear regression of four parameter dose response algorithm. The Percent Activity (PA) was measured to EC100 of Carbachol.
as §3

Structure (SMILES) | EC50 [1] | M2 FDSS PA % [1] | M5 FDSS PA % [2] | EC50 [2]
Fc1ccc(OC[C@H]2CCO2)c(C2CCN([C@@H]3COC4(C3)CN(c3nncs3)C4)CC2)c1.O=C(O)C(F)(F)F (single isomer, unassigned) [Example 2C, (S)-7-(4-(5-fluoro-2-(((R)-oxetan-2-yl)methoxy)phenyl)piperidin-1-yl)-2-(1,3,4-thiadiazol-2-yl)-5-oxa-2-azaspiro[3.4]octane trifluoroacetate or (S)-7-(4-(5-fluoro-2-(((S)-oxetan-2-yl)methoxy)phenyl)piperidin-1-yl)-2-(1,3,4-thiadiazol-2-yl)-5-oxa-2-azaspiro[3.4]octane trifluoroacetate] | 0.321 µM | 39% | 0% | > 25 µM
Fc1ccc(OC[C@H]2CCO2)c(C2CCN([C@@H]3COC4(C3)CN(c3nncs3)C4)CC2)c1.O=C(O)C(F)(F)F (single isomer, unassigned) [Example 2D, (S)-7-(4-(5-fluoro-2-(((R)-oxetan-2-yl)methoxy)phenyl)piperidin-1-yl)-2-(1,3,4-thiadiazol-2-yl)-5-oxa-2-azaspiro[3.4]octane trifluoroacetate or (S)-7-(4-(5-fluoro-2-(((S)-oxetan-2-yl)methoxy)phenyl)piperidin-1-yl)-2-(1,3,4-thiadiazol-2-yl)-5-oxa-2-azaspiro[3.4]octane trifluoroacetate] | 0.446 µM | 50% | 0% | > 25 µM
OC[C@H]1C[C@H](Oc2ccc(F)cc2C2CCN([C@@H]3COC4(C3)CN(c3nnco3)C4)CC2)C1 (single isomer, unassigned) [Example 2HH, ((1S,3r)-3-(2-(1-((S)-2-(1,3,4-oxadiazol-2-yl)-5-oxa-2-azaspiro[3.4]octan-7-yl)piperidin-4-yl)-4-fluorophenoxy)cyclobutyl)methanol or ((1R,3s)-3-(2-(1-((S)-2-(1,3,4-oxadiazol-2-yl)-5-oxa-2-azaspiro[3.4]octan-7-yl)piperidin-4-yl)-4-fluorophenoxy)cyclobutyl)methanol] | 6.57 µM | 25% | 0% | > 25 µM
OC[C@H]1C[C@H](Oc2ccc(F)cc2C2CCN([C@@H]3COC4(C3)CN(c3nnco3)C4)CC2)C1 (single isomer, unassigned) [Example 2II, ((1S,3r)-3-(2-(1-((S)-2-(1,3,4-oxadiazol-2-yl)-5-oxa-2-azaspiro[3.4]octan-7-yl)piperidin-4-yl)-4-fluorophenoxy)cyclobutyl)methanol or ((1R,3s)-3-(2-(1-((S)-2-(1,3,4-oxadiazol-2-yl)-5-oxa-2-azaspiro[3.4]octan-7-yl)piperidin-4-yl)-4-fluorophenoxy)cyclobutyl)methanol] | 4.29 µM | 23% | 0% | > 25 µM

Results, then the molecule that gave them:

EC50 [1] | M2 FDSS PA % [1] | M5 FDSS PA % [2] | EC50 [2] | Structure (SMILES)
4.24 µM | 20% | 0% | > 25 µM | CC1(C)C[C@@H](Oc2ccc(F)cc2C2CCN([C@@H]3COC4(C3)CN(c3nnco3)C4)CC2)CO1 (single isomer, unassigned) [Example 2N, (S)-7-(4-(2-(((R)-5,5-dimethyltetrahydrofuran-3-yl)oxy)-5-fluorophenyl)piperidin-1-yl)-2-(1,3,4-oxadiazol-2-yl)-5-oxa-2-azaspiro[3.4]octane or (S)-7-(4-(2-(((S)-5,5-dimethyltetrahydrofuran-3-yl)oxy)-5-fluorophenyl)piperidin-1-yl)-2-(1,3,4-oxadiazol-2-yl)-5-oxa-2-azaspiro[3.4]octane]
0.581 µM | 37% | 0% | > 25 µM | CC1(C)C[C@@H](Oc2ccc(F)cc2C2CCN([C@@H]3COC4(C3)CN(c3nnco3)C4)CC2)CO1 (single isomer, unassigned) [Example 2O, (S)-7-(4-(2-(((R)-5,5-dimethyltetrahydrofuran-3-yl)oxy)-5-fluorophenyl)piperidin-1-yl)-2-(1,3,4-oxadiazol-2-yl)-5-oxa-2-azaspiro[3.4]octane or (S)-7-(4-(2-(((S)-5,5-dimethyltetrahydrofuran-3-yl)oxy)-5-fluorophenyl)piperidin-1-yl)-2-(1,3,4-oxadiazol-2-yl)-5-oxa-2-azaspiro[3.4]octane]
1.16 µM | 26% | 0% | > 25 µM | Fc1ccc(O[C@H]2CCCOC2)c(C2CCN([C@@H]3COC4(C3)CN(c3nnco3)C4)CC2)c1 (single isomer, unassigned) [Example 2Q, (S)-7-(4-(5-fluoro-2-(((S)-tetrahydro-2H-pyran-3-yl)oxy)phenyl)piperidin-1-yl)-2-(1,3,4-oxadiazol-2-yl)-5-oxa-2-azaspiro[3.4]octane or (S)-7-(4-(5-fluoro-2-(((R)-tetrahydro-2H-pyran-3-yl)oxy)phenyl)piperidin-1-yl)-2-(1,3,4-oxadiazol-2-yl)-5-oxa-2-azaspiro[3.4]octane]

Reference: patent publication US11485742B2, “2-azaspiro[3.4]octane derivatives as M4 agonists” (NOVARTIS AG, priority 2019, dated 2022)
